Assay results as given in patent publication US5218089A, “Retro-inverso analogues of thymopentin and the method for their synthesis” (Sclavo S.p.A., priority 1988, dated 1993).

Experiments:
[1] = tested on: lymphocytes which secrete antibodies (PFC); test: Hemolysis plaque (PFC) test of Jerne and Nordin in SRBC-immunized mice; type: in vivo, C3H/HeNCr1Br inbred male mice; details: 1 ng of peptide orally 2 hours after SRBC i.v., spleen lymphocytes after 4 days, IgM PFC
Method: Specifically, hemolysis plates (PFC) were used for the test, which was conducted by the method described by Jerne and Nordin. The test was carried out by intravenously administering to C3H/HeNCr1Br inbred male mice (Calco-Italia) of 10-12 weeks and about 25 g body weight an apyrogenic saline solution (0.2 ml) containing 1-2×10^8 red blood cells from sheep (SRBC). After two hours, groups each containing 3 mice were treated orally (intragastric tube) with 0.2 ml of saline solution (control) or with 0.2 ml of saline solution containing 1 ng of peptide. After 4 days the mice were killed and the spleen withdrawn and dissociated mechanically to separate the lymphocytes. The thus isolated lymphocytes were washed with minimum essential medium (MEM) (3×15 ml) containing Earle's salts and then resuspended in the same medium (1 ml) at a final concentration of 150,000 cells. Each cell suspension (0.1 ml) was then diluted 1:100 with MEM, 100 μl of each dilution being doubly added to microplate wells containing 25 μl of MEM, 25 μl of a 10% solution of SRBC antigens and 25 μl of guinea pig complement at a final dilution of 1:64. The entire suspension was immediately transferred by capillarity from each well to superimposed slides. […]
At the end of this period the direct hemolysis plaques indicating the number of lymphocytes which secrete antibodies (PFC) are counted by a light contrast viewer.

[2] = Stability towards enzymatic hydrolysis in heparinized human plasma; details: 37° C., about 30 nmoles/ml of plasma
[3] = in vitro; details: human, heparinized human plasma
[4] = action of various proteases; cited from earlier work

Stability towards enzymatic hydrolysis in human plasma (t/2 in minutes) [2]	half-life [3] [min]	Compound	Plaque formation % control [1] [% control]	t1/2 in the plasma [4] [min]
22 min	22	CC(C)[C@H](NC(=O)[C@H](CC(=O)O)NC(=O)C(CCCCN)C(=O)N[C@@H](N)CCCNC(=N)N)C(=O)N[C@@H](Cc1ccc(O)cc1)C(=O)O (some centres unmarked)	112	
> 300 min	> 300	CC(C)C(C(=O)N[C@H](CC(=O)O)NC(=O)C(CCCCN)C(=O)N[C@@H](N)CCCNC(=N)N)C(=O)N[C@@H](Cc1ccc(O)cc1)C(=O)O (some centres unmarked) [Example 1]		

Compound	Stability towards enzymatic hydrolysis in human plasma (t/2 in minutes) [2]	half-life [3] [min]	Plaque formation % control [1] [% control]	t1/2 in the plasma [4] [min]
H-RKDVY-OH [TP5, H-Arg-Lys-Asp-Val-Tyr-OH]	≈ 1.5 minutes		104	1.5
